Experimental data reported in patent US12372525B2 (priority 2013, dated 2025).
pIC50: −log10 of the molar value. Entries after “also recorded” stand apart in the source; their conditions may differ.

What was measured:
influenza virus = details: cited from earlier work
[1] = system: A/Massachusetts/5/2007 (H1N1) H274Y; details: Oselt resistance strain; cited from earlier work
[2] = system: A/Washington/29/2009(H1N1pdm) H275Y; details: Oselt resistance strain; cited from earlier work
[3] = system: A/Georgia/20/2006 (H1N1) H274Y; details: Oselt resistance strain; cited from earlier work
[4] = system: A/Texas/12/2007 (H3N2) E119V; details: Oselt resistance strain; cited from earlier work
[5] = system: A/Mississippi/03/2001 A(H1N1) H275Y neuraminidase; details: stated character of the test strain; cited from earlier work
[6] = system: B/Hong Kong/36/2005 B) R371K; details: Oselt + Zana resistance strain; cited from earlier work
[7] = system: A/Mississippi/03/2001 A(H1N1) H275Y neuraminidase; assay type: biochemical, Influenza A
[8] = system: A/Montana/8/2007 (H3N2) D151V/D; details: Zana resistance strain; cited from earlier work

Compound	decrease in susceptibility of isolated virus variants (influenza virus) [fold]	pIC50 [1]	pIC50 [2]	pIC50 [3]	pIC50 [4]	known sensitivity of the test strain neuraminidase to the drug [5]	pIC50 [6]	relative sensitivity of test strain in dual enzyme assay [7]	pIC50 [8]
CCOC(=O)C1=C[C@@H](OC(CC)CC)[C@H](NC(C)=O)[C@@H](N)C1 [Oseltamivir]	> 10	6.59	5.84	6.42	8.04	resistant	5.75		
CC(=O)N[C@H]1[C@H]([C@H](O)[C@H](O)CO)OC(C(=O)O)=C[C@@H]1N=C(N)N [Zanamivir]						sensitive	6.81	more sensitive to Zanamivir than Oseltamivir; also recorded: Relenza outperforms Tamiflu	6.72
